Data reported in PMC4533898 (Biochemistry, 2015).

Assays:
[1] = target: Progesterone receptor membrane component 1 (hPGRMC1) (Homo sapiens, UniProt O00264, Y164F); assay: UV-vis spectroscopy; format: binding
[2] = target: Progesterone receptor membrane component 1 (hPGRMC1) (Homo sapiens, UniProt O00264, Y164H); assay: UV-vis; format: binding
Progesterone receptor membrane component 1 (hPGRMC1) (Homo sapiens, UniProt O00264, Y164H), sequence (O00264 71-195 Y164H): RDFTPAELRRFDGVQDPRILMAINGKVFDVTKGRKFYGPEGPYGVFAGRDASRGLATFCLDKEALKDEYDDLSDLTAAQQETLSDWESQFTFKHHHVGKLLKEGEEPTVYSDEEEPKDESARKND

Progesterone receptor membrane component 1 (hPGRMC1) (Homo sapiens, UniProt O00264, Y164F), sequence (O00264 71-195 Y164F): as the sequence (O00264 71-195 Y164H) above, with H94F counted along it

In the case of heme, the “% of WT heme binding” value [1] is reported as ~ 15 % of WT heme binding and the “% of WT heme binding” value [2] is reported as ~ 90 % of WT heme binding.
